# Patent US20040152739A1, “Acyclic pyrazole compounds for the inhibition of mitogen activated protein kinase-activated protein kinase-2” (priority 2002, published 2004)
# Structures can show the parent of a compound that is named as a salt.
# Biological target: MK-2 (Homo sapiens, UniProt P49137)
# Experiment: Determination of MK-2 IC50 (anion exchange resin capture assay, HSP-peptide phosphorylation)
# Type: biochemical
# Settings: read-out: MK-2 Avg. IC50
# Procedure: The phosphorylation of HSP-peptide ([sequence]) by MAPKAPK2 was measured using an anion exchange resin capture assay method. […] The reaction was terminated and [γ^33P]ATP was removed from solution by the addition of 150 μl of AG 1×8 ion exchange resin in 900 mM sodium formate pH 3.0. A 50 μl aliquot of head volume was removed from the quenched reaction mixture and added to a 96-well plate, 150 μl of Microscint-40 (Packard) was added and the amount of phosphorylated-peptide was determined. Allow the Microscint to sit in the plates for 60 minutes prior to counting.
# Compounds are evaluated as potential inhibitors of the MK2 kinase by measuring their effects on MK2 phosphorylation of the peptide substrate. Compounds may be screened initially at two concentrations prior to determination of IC50 values. Screening results are expressed as percent inhibition at the concentrations of compound tested. For IC50 value determinations, compounds are tested at six concentrations in ten-fold serial dilutions with each concentration tested in triplicate. Results are expressed as IC50 values in micromolar. The assay is performed at a final concentration of 2% DMSO.
# Compounds are evaluated as potential inhibitors of the MK-2 kinase by measuring their effects on MK-2 phosphorylation of the peptide substrate. Compounds may be screened initially at two concentrations prior to determination of IC50 values. Screening results are expressed as percent inhibition at the concentrations of compound tested. For IC50 value determinations, compounds are tested at six concentrations in ten-fold serial dilutions with each concentration tested in triplicate. Results are expressed as IC50 values in micromolar. The assay is performed at a final concentration of 2% DMSO.
# Chain of MK-2 (P49137 whole entry, species assumed): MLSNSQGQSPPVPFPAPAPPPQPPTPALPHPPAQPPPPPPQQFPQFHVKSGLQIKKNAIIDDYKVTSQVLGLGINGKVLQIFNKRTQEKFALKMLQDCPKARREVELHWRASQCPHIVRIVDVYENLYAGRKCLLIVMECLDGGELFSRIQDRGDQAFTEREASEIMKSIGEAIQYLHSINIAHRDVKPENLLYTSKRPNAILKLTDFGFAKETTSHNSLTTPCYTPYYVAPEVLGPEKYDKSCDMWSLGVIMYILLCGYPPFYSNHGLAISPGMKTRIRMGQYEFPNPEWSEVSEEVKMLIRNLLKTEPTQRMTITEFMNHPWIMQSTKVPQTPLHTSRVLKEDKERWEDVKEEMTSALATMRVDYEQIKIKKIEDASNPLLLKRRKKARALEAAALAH
row,SMILES,IC50 [nM]
1,O=C1NCCn2nc(-c3ccnc(-c4ccc(Cl)s4)c3)cc21 [Example 29],444
2,"O=C1NCCn2nc(-c3ccnc(-c4ccc5c(c4)CCN5)c3)cc21 [Example 59, hydrochloride]",1070
3,"COc1ccc(-c2cc(-c3cc(C(=O)O)n(CCN)n3)ccn2)cc1 [Example 12, trifluoroacetate]",168
4,"CCOC(=O)c1cc(-c2ccnc(-c3cnc4ccccc4c3)c2)nn1CCN [Example 58, hydrochloride]",1030
5,O=C1NC(CCl)Cn2nc(-c3ccnc(-c4cnc5ccccc5c4)c3)cc21 (centres unmarked) [Example 64],1170
6,"O=C1NCCCn2nc(-c3ccnc(-c4cnc5ccccc5c4)c3)cc21 [Example 39, trifluoroacetate]",577
7,"O=C1NCCn2nc(-c3ccnc(-c4ccc(CO)cc4)c3)cc21 [Example 54, trifluoroacetate]",929
8,"COc1ccc(-c2cc(-c3cc4n(n3)CCNC4=O)ccn2)cn1 [Example 50, trifluoroacetate]",866
9,"O=C1NCCn2nc(-c3ccnc(-c4cccc([N+](=O)[O-])c4)c3)cc21 [Example 13, dihydrochloride]",171
10,"O=C1Cc2cc(-c3cc(-c4cc5n(n4)CCNC5=O)ccn3)ccc2N1 [Example 38, trifluoroacetate]",554
11,NCCCn1nc(-c2ccnc(-c3cnc4ccccc4c3)c2)cc1C(=O)O [Example 7],68.6
12,NCCn1nc(-c2ccnc(-c3cccc([N+](=O)[O-])c3)c2)cc1C(=O)O [Example 9],109
13,O=C1NC(CO)Cn2nc(-c3ccnc(-c4cnc5ccccc5c4)c3)cc21 (centres unmarked) [Example 6],61.5
14,"NCCn1nc(-c2ccnc(-c3cnc4ccccc4c3)c2)cc1C(=O)O [Example 1, dihydrochloride]",26.9
15,NCCn1nc(-c2ccnc(-c3ccc(OC(F)(F)F)cc3)c2)cc1C(=O)O [Example 11],161
16,"O=Cc1ccc(-c2cc(-c3cc4n(n3)CCNC4=O)ccn2)cc1 [Example 62, hydrochloride]",1150
17,"O=C1NCCn2nc(-c3ccnc(-c4cccc(O)c4)c3)cc21 [Example 35, trifluoroacetate]",520
18,"NC(=O)C1Cn2nc(-c3ccnc(-c4cnc5ccccc5c4)c3)cc2C(=O)N1 (centres unmarked) [Example 57, trifluoroacetate]",1010
19,O=C1NCCn2nc(-c3ccnc(-c4ccc5[nH]ncc5c4)c3)cc21 [Example 16],199
20,"NCCn1nc(-c2ccncc2)cc1C(=O)O [Example 45, trifluoroacetate]",735
21,"O=C1NCCn2nc(-c3ccnc(/C=C/c4cccnc4)c3)cc21 [Example 18, dihydrochloride]",212

# More lines, now with the values ahead:
row,IC50 [nM],SMILES
1,4900,"O=C1NC(CO)Cn2nc(-c3ccnc(C4CNc5ccccc5C4)c3)cc21 (centres unmarked) [Example 107, 6-(hydroxymethyl)-2-[2-(1,2,3,4-tetrahydroquinolin-3-yl)pyridin-4-yl]-6,7-dihydropyrazolo[1,5-a]pyrazin-4(5H)-one]"
2,2950,O=C1NCCn2nc(-c3ccnc(-c4ccccc4F)c3)cc21 [Example 93]
3,1750,"O=C1NCCCn2nc(-c3ccnc(-c4ccc(CO)cc4)c3)cc21 [Example 79, 2-{2-[4-(hydroxymethyl)phenyl]pyridin-4-yl}-5,6,7,8-tetrahydro-4H-pyrazolo[1,5-a][1,4]diazepin-4-one]"
4,3650,"O=C1NCCn2nc(-c3ccnc(-c4ccc(C(=O)N5CCOCC5)cc4)c3)cc21 [Example 101, 2-{2-[4-(morpholin-4-ylcarbonyl)phenyl]pyridin-4-yl}-6,7-dihydropyrazolo[1,5-a]pyrazin-4(5H)-one]"
5,60800,"CCOC(=O)c1cc(-c2ccncc2)nn1CCCN [Example 143, ethyl 1-(3-aminopropyl)-3-pyridin-4-yl-1H-pyrazole-5-carboxylate hydrochloride]"
6,4200,"O=C1NCCn2nc(-c3ccnc(-n4cccn4)c3)cc21 [Example 103, 2-[2-(1H-pyrazol-1-yl)pyridin-4-yl]-6,7-dihydropyrazolo[1,5-a]pyrazin-4(5H)-one]"
7,131000,"O=C1NCCn2nc(-c3ccnc(-c4ccc(OC(F)(F)F)cc4)c3)cc21 [Example 149, 2-{2-[4-(trifluoromethoxy)phenyl]pyridin-4-yl}-6,7-dihydropyrazolo[1,5-a]pyrazin-4(5H)-one trifluoroacetate]"
8,14300,"CCCn1nc(-c2ccnc(-n3ccnc3)c2)cc1C(=O)O [Example 127, 3-[2-(1H-imidazol-1-yl)pyridin-4-yl]-1-propyl-1H-pyrazole-5-carboxylic acid]"
9,4270,"O=C1NCCn2nc(-c3ccnc(-c4nc5ccccc5s4)c3)cc21 [Example 104, 2-[2-(1,3-benzothiazol-2-yl)pyndin-4-yl]-6,7-dihydropyrazolo[1,5-a]pyrazin-4(5H)-one]"
10,16200,"O=C1NCCCn2nc(-c3ccnc(-n4cccn4)c3)cc21 [Example 130, 2-[2-(1H-pyrazol-1-yl)pyridin-4-yl]-5,6,7,8-tetrahydro-4H-pyrazolo[1,5-a][1,4]diazepin-4-one hydrochloride]"
11,6730,"O=C1NCCn2nc(-c3ccnc(-c4cccc(OCCN5CCOCC5)c4)c3)cc21 [Example 116, 2-{2-[3-(2-morpholin-4-ylethoxy)phenyl]pyridin-4-yl}-6,7-dihydropyrazolo[1,5-a]pyrazin-4(5H)-one]"
12,5340,"O=C1NCCn2nc(-c3ccnc(-c4ccccn4)c3)cc21 [Example 111, 2-(2,2′-bipyridin-4-yl)-6,7-dihydropyrazolo[1,5-a]pyrazin-4(5H)-one]"
13,1980,"CN(C)CCc1ccc(-c2cc(-c3cc4n(n3)CCNC4=O)ccn2)cc1 [Example 80, hydrochloride]"
14,7040,"O=C1NCCn2nc(-c3ccnc(-n4cnc(-c5ccccc5)c4)c3)cc21 [Example 117, 2-[2-(4-phenyl-1H-imidazol-1-yl)pyridin-4-yl]-6,7-dihydropyrazolo[1,5-a]pyrazin-4(5H)-one]"
15,3020,"CCOC(=O)N1CCN(CCOc2cccc(-c3cc(-c4cc5n(n4)CCNC5=O)ccn3)c2)CC1 [Example 95, trifluoroacetate]"
16,1390,"O=C1NCCn2nc(-c3ccnc(-c4cccc(Cl)c4)c3)c(Br)c21 [Example 72, hydrochloride]"
17,1550,O=C1NCCn2nc(-c3ccnc(-c4ccsc4)c3)cc21 [Example 75]
18,4190,"O=C(O)CCc1ccc(-c2cc(-c3cc4n(n3)CCNC4=O)ccn2)cc1 [Example 102, 3-{4-[4-(4-oxo-4,5,6,7-tetrahydropyrazolo[1,5-a]pyrazin-2-yl)pyridin-2-yl]phenyl}propanoic acid]"
19,2620,"O=C1NCCn2nc(-c3ccnc(-c4ccc(F)cc4F)c3)cc21 [Example 89, dihydrochloride]"
20,7910,"NCCn1nc(-c2ccnc(-c3ccc(CO)cc3)c2)cc1C(=O)NO [Example 118, 1-(2-aminoethy)-N-hydroxy-3-{2-[4-(hydroxymethyl)phenyl]pyridin-4-yl}-1H-pyrazole-5-carboxamide trifluoroacetate]"
